# In patent US20260014129A1, “MITOCHONDRIAL PYRUVATE METABOLISM INHIBITORS FOR TREATING CHRONIC MYELOID LEUKEMIA” (The University Court of the University of Glasgow, priority 2022, published 2026):
# Key:
# [1] = Body weight of xenografted NRG-W41 mice during treatment; settings: 4 weeks
# Protocol: For in vivo engraftment, 1 million CML CD34^+ cells, were transplanted via tail vein into sublethally irradiated (2.5Gy) female NRG-W41 (NOD.Cg-Rag1^tm1MomKit^W-41JIl2rg^tm1Wjl)) mice aged 8-10 weeks. Mice were housed under conditions of alternating 12 hours light and 12 hours darkness, at 20-24° C., 45-65% humidity, with feeding (LBS biotech: SDS Cat #SDS801730) and water ad libitum.
# For treatment with imatinib plus MSDC-0160, eight weeks following transplant, drug treatment was started with both imatinib (LC Laboratories, Cat #1-5508) dosed at 100 mg/kg/day (50 mg per kg body weight BID) oral gavage and MSDC-0160 (30 mg/kg; oral gavage once daily). Treatment was given for 4 weeks.
# K562 CML cell line = assay: 13C6 glucose tracing in K562 CML cell line; assay type: cell-based, human; settings: K562, several concentrations
# Protocol: For conjugation of palmitate, a 20 mM stock was made in 100% EtOH. This was incubated on a shaking heater, 60° C. until the solution clarified. The palmitate was then added to 10% BSA (ultra-fatty acid free in EBSS, Roche, 03117057001) to give a palmitate:BSA ratio of 1:3 BSA. This solution was left for 15 min in water bath (37° C.), and then added to final concentration in complete medium. For cell line experiments, the medium was RPMI with 10% dialysed FBS and 1% penicillin/streptomycin. For tracing experiments 11 mM ^13C6 glucose was added to glucose-free RPMI.
# Biological and technical replicates were processed through Autoplotter (56) and natural abundance was corrected for. Fraction of enrichment was calculated as m+2 and above. For CML samples treated with or without imatinib, multiple paired T-tests were conducted on Log 10 transformed values in Graphpad Prism. The correction for multiple comparisons was the two-stage step-up method of Benjamini, Krieger and Yekutieli with an FDR (Q) value of 10%. For volcano plots Log 10 FC vs Log 10 (q value) are plotted with q values>5% in red and >10% in blue. For normal vs CML comparisons, the process was the same with the exception that unpaired t-tests were used. For PC activity in normal vs CML, this is denoted by fraction m+3. For imatinib vs untreated we look at relative activity to PDH. IE., the m+3/m+2 ratio and conducted multiple t-tests with correction for multiple comparisons being the two-stage step-up method of Benjamini, Krieger and Yekutieli with an FDR (Q) value of 10%. To examine contribution to carbon pool we corrected contribution of each isotopologue by the number of carbons it contributes to a given metabolite, i.e., for glutamine contribution from m+5 is greater than m+3. Note that for cell line experiments standard deviation is shown.
# CML CD34+ cells [2] = assay: Extracellular flux of spent medium by YSI bioanalyser; assay type: cell-based, human
# Protocol: A YSI 2900 biochemistry analyser was used as per the manufacturer's instructions to quantify glucose, lactate, glutamine, and glutamate in the media. The concentration of each metabolite was normalised to cell number and the rate of uptake or secretion per hour was calculated relative to cell free medium. The exchange rate per 48 hours [secretion (+) or consumption (−)] for a specific metabolite (x) was obtained according to the following equation:
# KCL22 cell line = assay: Imatinib sensitivity of PC knockout KCL22 cell line; assay type: cell-based, human; settings: data not shown
# CML CD34+ cells [3] = assay: Mitochondrial respiratory capacity (FCCP-induced oxygen consumption rate); assay type: cell-based, human; settings: imatinib-treated samples
# CML CD34+ cells [4] = assay: Proliferation (cell doubling time) and apoptosis (Annexin V/7-AAD) of primary CML CD34+ cells; settings: imatinib 2 μM
# phospho-CRKL = assay: Western blot of phospho-CRKL in CML patient samples; assay type: cell-based, human; settings: imatinib, two patient samples
# Protocol: Cells were lysed in RIPA buffer containing mini-Complete protease inhibitor cocktail and phosphatase inhibitors (both Roche). Total protein concentration was quantified using a Pierce BCA kit (Thermo Fisher Scientific: 23227). Equal amounts of protein (5-7.5 μg) were heated at 95° C. for 5 min and separated (120V) in 4-12% gels (Novex) for SDS-PAGE. Proteins were transferred onto PDVF membranes (Thermo Fisher Scientific: 21882) then blocked in 2% BSA (in Tris-buffered saline, 0.01% Tween (TBS-T)) for one hour. Next, membranes were incubated overnight at 4° C. with the primary antibodies. The membranes were rinsed three times with TBS-T, then incubated with secondary HRP-linked antibodies (1:10,000) for 1 hour at room temperature. The SuperSignal West Femto Maxi detection system was used (Thermo Fisher Scientific: 34095) and imaging was carried out using a LI-COR Odyssey Fc gel-doc system.
# K562 cells = assay: Viability (Annexin V/7AAD) and CFC assays of vector control versus PC knockout K562 cells; assay type: cell-based, human; settings: 72 hours; 600 nm imatinib or 100 nm omacetaxine
# Protocol: (a) Western blot of PC and loading control (tubulin) from vector control or PC knockout K562 cells. (b) Proliferation of K562 cells from A. Shown is average and SEM from 3 independent experiments. (c) Fractional labelling from ^13C6 glucose into indicated metabolites of PC knockout cells are shown (n=3) after 24 hours. Plots were generated using Autoplotter, average and SD are plotted. Statistical analyses were conducted on the m+5 fraction. An ordinary one-way ANOVA was used with Dunnett's test used to correct for multiple comparisons. (d) Cells viability was measured using Annexin V and 7AAD. Cells were either left untreated (UT) or exposed for 72 hours to 600 nm imatinib or 100 nm omacetaxine (OMA). Shown is average and SEM from 4 independent experiments. An ordinary one-way ANOVA was used with Dunnett's test used to correct for multiple comparisons. (e) Colony Forming Cell (CFC) potential of control and […] cells. Cells were either left untreated (UT) or exposed for 72 hours to 600 nm imatinib. Shown is average and SEM from 4 independent experiments. An ordinary one-way ANOVA was used with Dunnett's test used to correct for multiple comparisons. […]
SMILES,"tolerability (body weight throughout the study), single agent arms ([1]; imatinib 50 mg/kg BID or MSDC-0160 30 mg/kg/day, oral gavage)","tolerability (body weight throughout the study), combination arm ([1]; imatinib 50 mg/kg BID plus MSDC-0160 30 mg/kg/day)",labelled fractions in alpha-ketoglutarate (AKG) and AKG-derived glutamate (K562 CML cell line),glucose contribution to fraction of labelling (K562 CML cell line; data not shown),glucose consumption (CML CD34+ cells [2]; imatinib-treated vs control primary CML CD34+ cells),glutamine consumption (CML CD34+ cells [2]; imatinib-treated vs untreated primary CML CD34+ cells),sensitivity to the drug after knockout of PC in KCL22 (KCL22 cell line),mitochondrial respiratory capacity (FCCP-induced oxygen consumption rate) (CML CD34+ cells [3]),"cell proliferation (cell doubling time) (CML CD34+ cells [4]; primary CML CD34+ cells in Plasmax, p-value=0.0659)","level of apoptosis (CML CD34+ cells [4]; primary CML CD34+ cells, p-value=0.081)",phospho-CRKL protein level (phospho-CRKL),"sensitisation of K562 to the drug by PC ablation, viability and CFC assays (K562 cells)"
CCc1ccc(C(=O)COc2ccc(CC3SC(=O)NC3=O)cc2)nc1 (stereo not drawn) [MSDC-0160],well tolerated,well tolerated,reducing levels of all labelled fractions in these metabolites in a concentration-dependent manner,concentration-dependent reduction,–,–,–,–,–,–,–,–
Cc1ccc(NC(=O)c2ccc(CN3CCN(C)CC3)cc2)cc1Nc1nccc(-c2cccnc2)n1 [imatinib],–,–,–,–,"consumed less glucose than control cells, when corrected for a decrease in proliferation this difference disappeared",decreased,failed to increase sensitivity,reduced,inhibited cell proliferation,"modest, sample-dependent increase in the level of apoptosis",decreased,sensitised
